# Where two headings read alike, the source gives them in different places. Peptide text beside a SMILES is read from it.
# What was measured:
# [1] = test system: Escherichia coli MCR-1 Af 45; conditions: Mueller-Hinton broth II, 18-20 hours at 35° C.
# Procedure, shortened: (§1)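 Two-fold serial dilutions of peptide, in water with polysorbate 80 (0.002% final), met bacteria adjusted to 0.5 McFarland then diluted to about 5×10^5 CFU/mL. Medium was cation-adjusted Mueller-Hinton II broth; peptide stocks were 1 mg/mL in sterile water.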
# [2] = test system: Klebsiella pneumoniae SSI3010
# Procedure, shortened: as §1
# [3] = test system: Escherichia coli ATCC 25922
# Procedure, shortened: as §1
# [4] = test system: human red blood cells (hRBC); assay: Hemolysis of human red blood cells; type: cell-based
# Procedure, shortened: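 PBS-washed human red blood cells (20% v/v) were incubated with peptide at 200 μg/mL for 1 h at 37 °C with shaking. Supernatant OD was read at 540 nm after 8-fold dilution. Hemolysis is expressed as percent of the water control.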
# [5] = Mueller-Hinton broth II, 18-20 hours at 35° C.
Structure (SMILES),Escherichia coli MCR-1 Af 45 MIC [1] [µg/mL],Klebsiella pneumoniae SSI3010 MIC ([2]; SSI3010) [µg/mL],Escherichia coli ATCC 25922 MIC ([3]; ATCC 25922) [µg/mL],"Hemolysis at 0.2 g/L ([4]; red cells of human, 1 h) [%]","Klebsiella pneumoniae SSI3010 MIC [2, 5] [µg/mL]","Escherichia coli ATCC 25922 MIC [3, 5] [µg/mL]","Hemolysis at 0.2 g/L ([4]; 20% hRBC, 1 h at 37° C.) [%]"
"CC[C@H](C)[C@H](NC(=O)[C@@H]1CCCN1C(=O)[C@@H](N)C(C)C)C(=O)N[C@@H](Cc1ccccc1)C(=O)N[C@@H](Cc1ccc(O)cc1)C(=O)N[C@H]1CSSC[C@@H](C(=O)N[C@@H](CCN)C(=O)N[C@@H](CCCNC(=N)N)C(=O)N[C@@H](Cc2ccc(O)cc2)C(=O)O)NC(=O)[C@H](CCCCN)NC(=O)[C@@H](CCN)NC(=O)[C@H]([C@@H](C)O)NC(=O)[C@H](CCN)NC(=O)[C@H](CCCNC(=N)N)NC(=O)[C@H](CC(N)=O)NC1=O [Example 145] (HELM PEPTIDE1{V.P.I.F.Y.C.N.R.[Dab].T.[NCC[C@@H](N[*:1])C(=O)[*:2]].K.C.[Dab].R.Y}$PEPTIDE1,PEPTIDE1,6:R3-13:R3$$$V2.0)",0.0625,0.125,0.0625,0,–,–,–
"CC[C@H](C)[C@H](NC(=O)[C@@H](NC(=O)[C@@H]1CCCN1C(=O)[C@@H](O)C(C)C)[C@@H](C)CC)C(=O)N[C@@H](Cc1ccc(O)cc1)C(=O)N[C@H]1CSSC[C@@H](C(=O)N[C@@H](CCN)C(=O)N[C@@H](CCCNC(=N)N)C(=O)N[C@@H](Cc2ccc(O)cc2)C(=O)O)NC(=O)[C@H](CCCCN)NC(=O)[C@@H](CCN)NC(=O)[C@H]([C@@H](C)O)NC(=O)[C@H](CCN)NC(=O)[C@H](CCCNC(=N)N)NC(=O)[C@H](CC(N)=O)NC1=O [Example 146] (HELM PEPTIDE1{[CC(C)[C@H](O)C(=O)[*:2]].P.I.I.Y.C.N.R.[Dab].T.[NCC[C@@H](N[*:1])C(=O)[*:2]].K.C.[Dab].R.Y}$PEPTIDE1,PEPTIDE1,6:R3-13:R3$$$V2.0)",0.5,0.5,0.5,0,–,–,–
"CC[C@H](C)[C@H](NC(=O)[C@@H](NC(=O)[C@@H]1C[C@@H](O)CN1C(=O)[C@@H](N)C(C)C)[C@@H](C)CC)C(=O)N[C@@H](Cc1ccc(O)cc1)C(=O)N[C@@H]1C(=O)N[C@@H](CC(N)=O)C(=O)N[C@@H](CCCNC(=N)N)C(=O)N[C@@H](CCN)C(=O)N[C@@H]([C@@H](C)O)C(=O)N[C@H](CCN)C(=O)N[C@@H](CCCCN)C(=O)N[C@H](C(=O)N[C@@H](CCN)C(=O)N[C@@H](CCCNC(=N)N)C(=O)N[C@@H](Cc2ccc(O)cc2)C(=O)O)CSSC1(C)C [Example 147] (HELM PEPTIDE1{V.[Hyp].I.I.Y.[Pen].N.R.[Dab].T.[NCC[C@@H](N[*:1])C(=O)[*:2]].K.C.[Dab].R.Y}$PEPTIDE1,PEPTIDE1,6:R3-13:R3$$$V2.0)",0.0625,–,–,–,0.25,0.125,0
"CC[C@H](C)[C@H](NC(=O)[C@@H]1C[C@@H](O)CN1C(=O)[C@@H](N)C(C)C)C(=O)N[C@H](C(=O)N[C@@H](Cc1ccc(O)cc1)C(=O)N[C@@H]1C(=O)N[C@@H](CC(N)=O)C(=O)N[C@@H](CCCNC(=N)N)C(=O)N[C@@H](CCN)C(=O)N[C@@H]([C@@H](C)O)C(=O)N[C@H](CCN)C(=O)N[C@@H](CCCCN)C(=O)N[C@H](C(=O)N[C@@H](CCN)C(=O)N[C@@H](CCCNC(=N)N)C(=O)N[C@@H](Cc2ccc(O)cc2)C(=O)O)CSSC1(C)C)[C@@H](C)O [Example 148] (HELM PEPTIDE1{V.[Hyp].I.T.Y.[Pen].N.R.[Dab].T.[NCC[C@@H](N[*:1])C(=O)[*:2]].K.C.[Dab].R.Y}$PEPTIDE1,PEPTIDE1,6:R3-13:R3$$$V2.0)",0.125,0.25,≤0.125,0,–,–,–
"CC[C@H](C)[C@H](NC(=O)[C@@H]1C[C@@H](O)CN1C(=O)[C@@H](N)C(C)C)C(=O)N[C@H](C(=O)N[C@@H](Cc1ccc(O)cc1)C(=O)N[C@@H]1C(=O)N[C@@H](CC(N)=O)C(=O)N[C@@H](CCCNC(=N)N)C(=O)N[C@@H](CCN)C(=O)N[C@@H]([C@@H](C)O)C(=O)N[C@H](CN)C(=O)N[C@@H](CCCCN)C(=O)N[C@H](C(=O)N[C@@H](CCN)C(=O)N[C@@H](CCCNC(=N)N)C(=O)N[C@@H](Cc2ccc(O)cc2)C(=O)O)CSSC1(C)C)[C@@H](C)O [Example 149] (HELM PEPTIDE1{V.[Hyp].I.T.Y.[Pen].N.R.[Dab].T.[NC[C@@H](N[*:1])C(=O)[*:2]].K.C.[Dab].R.Y}$PEPTIDE1,PEPTIDE1,6:R3-13:R3$$$V2.0)",0.25,0.5,0.25,0,–,–,–
"CC[C@H](C)[C@H](NC(=O)[C@@H]1C[C@@H](O)CN1C(=O)[C@@H](N)C(C)C)C(=O)N[C@H](C(=O)N[C@@H](Cc1ccc(O)cc1)C(=O)N[C@@H]1C(=O)N[C@@H](CC(N)=O)C(=O)N[C@@H](CCCNC(=N)N)C(=O)N[C@@H](CCN)C(=O)N[C@@H]([C@@H](C)O)C(=O)N[C@H](CCCN)C(=O)N[C@@H](CCCCN)C(=O)N[C@H](C(=O)N[C@@H](CCN)C(=O)N[C@@H](CCCNC(=N)N)C(=O)N[C@@H](Cc2ccc(O)cc2)C(=O)O)CSSC1(C)C)[C@@H](C)O [Example 150] (HELM PEPTIDE1{V.[Hyp].I.T.Y.[Pen].N.R.[Dab].T.[NCCC[C@@H](N[*:1])C(=O)[*:2]].K.C.[Dab].R.Y}$PEPTIDE1,PEPTIDE1,6:R3-13:R3$$$V2.0)",0.125,0.5,0.25,0,–,–,–
"CC[C@H](C)[C@H](NC(=O)[C@@H]1C[C@@H](O)CN1C(=O)[C@@H](N)C(C)C)C(=O)N[C@H](C(=O)N[C@@H](Cc1ccc(O)cc1)C(=O)N[C@@H]1C(=O)N[C@@H](CC(N)=O)C(=O)N[C@@H](CCCNC(=N)N)C(=O)N[C@@H](CCN)C(=O)N[C@@H]([C@@H](C)O)C(=O)N[C@H](CCCCN)C(=O)N[C@@H](CCCCN)C(=O)N[C@H](C(=O)N[C@@H](CCN)C(=O)N[C@@H](CCCNC(=N)N)C(=O)N[C@@H](Cc2ccc(O)cc2)C(=O)O)CSSC1(C)C)[C@@H](C)O [Example 151] (HELM PEPTIDE1{V.[Hyp].I.T.Y.[Pen].N.R.[Dab].T.[dK].K.C.[Dab].R.Y}$PEPTIDE1,PEPTIDE1,6:R3-13:R3$$$V2.0)",0.25,0.5,0.25,0,–,–,–
"CC[C@H](C)[C@H](NC(=O)[C@@H]1C[C@@H](O)CN1C(=O)[C@@H](N)C(C)C)C(=O)N[C@H](C(=O)N[C@@H](Cc1ccc(O)cc1)C(=O)N[C@@H]1C(=O)N[C@@H](CC(N)=O)C(=O)N[C@@H](CCCNC(=N)N)C(=O)N[C@@H](CCN)C(=O)N[C@@H]([C@@H](C)O)C(=O)N[C@H](CCCNC(=N)N)C(=O)N[C@@H](CCCCN)C(=O)N[C@H](C(=O)N[C@@H](CCN)C(=O)N[C@@H](CCCNC(=N)N)C(=O)N[C@@H](Cc2ccc(O)cc2)C(=O)O)CSSC1(C)C)[C@@H](C)O [Example 152] (HELM PEPTIDE1{V.[Hyp].I.T.Y.[Pen].N.R.[Dab].T.[dR].K.C.[Dab].R.Y}$PEPTIDE1,PEPTIDE1,6:R3-13:R3$$$V2.0)",0.25,0.25,0.25,0,–,–,–
"CC[C@H](C)[C@H](NC(=O)[C@@H]1C[C@@H](O)CN1C(=O)[C@@H](N)C(C)C)C(=O)N[C@@H](CCN)C(=O)N[C@@H](Cc1ccc(O)cc1)C(=O)N[C@@H]1C(=O)N[C@@H](CC(N)=O)C(=O)N[C@@H](CCCNC(=N)N)C(=O)N[C@@H](CCN)C(=O)N[C@@H]([C@@H](C)O)C(=O)N[C@H](CCN)C(=O)N[C@@H](CCCCN)C(=O)N[C@H](C(=O)N[C@@H](CCN)C(=O)N[C@H](C(=O)N[C@@H](Cc2ccc(O)cc2)C(=O)O)[C@@H](C)O)CSSC1(C)C [Example 153] (HELM PEPTIDE1{V.[Hyp].I.[Dab].Y.[Pen].N.R.[Dab].T.[NCC[C@@H](N[*:1])C(=O)[*:2]].K.C.[Dab].T.Y}$PEPTIDE1,PEPTIDE1,6:R3-13:R3$$$V2.0)",0.5,0.5,0.125,0,–,–,–
"CC[C@H](C)[C@H](NC(=O)[C@@H]1C[C@@H](O)CN1C(=O)[C@@H](N)C(C)C)C(=O)N[C@@H](CCCNC(=N)N)C(=O)N[C@@H](Cc1ccc(O)cc1)C(=O)N[C@@H]1C(=O)N[C@@H](CC(N)=O)C(=O)N[C@@H](CCCNC(=N)N)C(=O)N[C@@H](CCN)C(=O)N[C@@H]([C@@H](C)O)C(=O)N[C@H](CCN)C(=O)N[C@@H](CCCCN)C(=O)N[C@H](C(=O)N[C@@H](CCN)C(=O)N[C@H](C(=O)N[C@@H](Cc2ccc(O)cc2)C(=O)O)[C@@H](C)O)CSSC1(C)C [Example 154] (HELM PEPTIDE1{V.[Hyp].I.R.Y.[Pen].N.R.[Dab].T.[NCC[C@@H](N[*:1])C(=O)[*:2]].K.C.[Dab].T.Y}$PEPTIDE1,PEPTIDE1,6:R3-13:R3$$$V2.0)",0.25,0.5,0.25,0,–,–,–

# Source: US20230295234A1, “ANTIMICROBIAL PEPTIDOMIMETICS” (SPEXIS AG, priority 2020, published 2023)
